Laboratory results: US20240376121A1, “COMPOUNDS AND USES THEREOF” (Foghorn Therapeutics Inc., priority 2021, published 2024)

Key:
HiBit-BRM fusion protein = target: T1, HiBit-BRM fusion protein (Homo sapiens, UniProt P51531); assay: HiBiT-BRM cell-based degradation assay (Nano-Glo HiBiT Lytic Detection); settings: stable HeLa cell line expressing HiBiT-BRM, 24 h incubation; for BRM HiBit Degradation Maximum (%): top dose 30 μM; for DC50: read-out: BRM HiBit Degradation IC50
T1 construct: expressed in transfected cells
T1 sequence (P51531 whole entry, the tested form may be a part): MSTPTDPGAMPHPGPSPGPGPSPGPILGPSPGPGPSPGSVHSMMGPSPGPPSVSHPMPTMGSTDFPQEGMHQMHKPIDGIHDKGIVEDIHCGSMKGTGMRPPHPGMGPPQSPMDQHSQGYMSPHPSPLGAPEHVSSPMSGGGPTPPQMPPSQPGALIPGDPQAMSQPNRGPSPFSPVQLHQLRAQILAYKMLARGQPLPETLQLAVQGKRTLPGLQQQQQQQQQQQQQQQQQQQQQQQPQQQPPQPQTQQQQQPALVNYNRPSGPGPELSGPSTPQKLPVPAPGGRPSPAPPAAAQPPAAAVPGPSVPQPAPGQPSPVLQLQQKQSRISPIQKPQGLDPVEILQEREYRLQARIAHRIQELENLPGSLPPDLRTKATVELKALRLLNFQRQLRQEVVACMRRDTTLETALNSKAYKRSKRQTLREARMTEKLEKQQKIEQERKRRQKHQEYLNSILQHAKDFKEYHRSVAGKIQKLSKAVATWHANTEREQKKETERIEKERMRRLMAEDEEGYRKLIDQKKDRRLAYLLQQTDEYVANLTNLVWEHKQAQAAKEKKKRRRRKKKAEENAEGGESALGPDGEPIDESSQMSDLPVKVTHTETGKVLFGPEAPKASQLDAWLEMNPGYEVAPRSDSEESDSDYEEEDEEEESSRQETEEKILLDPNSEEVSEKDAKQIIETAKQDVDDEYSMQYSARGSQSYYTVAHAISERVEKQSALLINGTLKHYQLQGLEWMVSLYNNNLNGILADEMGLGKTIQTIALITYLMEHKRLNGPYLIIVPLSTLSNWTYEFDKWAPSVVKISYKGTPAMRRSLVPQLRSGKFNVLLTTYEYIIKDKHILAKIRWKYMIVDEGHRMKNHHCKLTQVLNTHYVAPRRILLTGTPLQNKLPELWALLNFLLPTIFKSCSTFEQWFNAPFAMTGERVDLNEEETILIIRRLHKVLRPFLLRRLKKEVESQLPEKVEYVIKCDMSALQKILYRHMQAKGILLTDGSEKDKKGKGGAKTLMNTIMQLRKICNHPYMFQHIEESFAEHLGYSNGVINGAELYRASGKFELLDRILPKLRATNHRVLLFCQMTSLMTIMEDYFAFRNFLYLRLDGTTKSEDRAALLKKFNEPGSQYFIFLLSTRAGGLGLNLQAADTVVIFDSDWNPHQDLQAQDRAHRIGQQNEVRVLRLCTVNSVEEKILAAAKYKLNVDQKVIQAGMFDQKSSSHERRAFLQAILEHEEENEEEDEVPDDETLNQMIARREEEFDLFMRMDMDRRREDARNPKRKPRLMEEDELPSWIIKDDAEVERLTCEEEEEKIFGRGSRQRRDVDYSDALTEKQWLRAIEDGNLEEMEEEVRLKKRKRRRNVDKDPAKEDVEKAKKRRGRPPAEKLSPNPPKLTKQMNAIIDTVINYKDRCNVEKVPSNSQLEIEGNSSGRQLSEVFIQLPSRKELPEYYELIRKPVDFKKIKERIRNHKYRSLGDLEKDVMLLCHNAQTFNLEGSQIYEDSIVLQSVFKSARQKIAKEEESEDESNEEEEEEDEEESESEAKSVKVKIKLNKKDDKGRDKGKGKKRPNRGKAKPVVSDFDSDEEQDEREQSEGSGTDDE
Procedure, shortened: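 HeLa cells stably expressing HiBiT-BRM were dosed with compounds (10-point 3-fold dilutions, 30 μM final top dose, duplicate) for 24 h. HiBiT signal was read by lytic LgBiT complementation luminescence. Percent degradation was normalised to DMSO (high control) and 2 μM of a reference BRM/BRG1 degrader (low control).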

[1] = target: T2, HiBit-BRG1 fusion protein (Homo sapiens, UniProt P51532); assay: HiBiT-BRG1 cell-based degradation assay (Nano-Glo HiBiT Lytic Detection); settings: stable HeLa cell line expressing HiBit-BRG1 and LgBit, 24 h incubation; for Dmax: top dose 30 μM, read-out: BRG1 HiBit Degradation Maximum (%); for DC50: read-out: BRMG1 HiBit Degradation IC50
T2 construct: expressed in transfected cells
T2 sequence (P51532 whole entry, the tested form may be a part): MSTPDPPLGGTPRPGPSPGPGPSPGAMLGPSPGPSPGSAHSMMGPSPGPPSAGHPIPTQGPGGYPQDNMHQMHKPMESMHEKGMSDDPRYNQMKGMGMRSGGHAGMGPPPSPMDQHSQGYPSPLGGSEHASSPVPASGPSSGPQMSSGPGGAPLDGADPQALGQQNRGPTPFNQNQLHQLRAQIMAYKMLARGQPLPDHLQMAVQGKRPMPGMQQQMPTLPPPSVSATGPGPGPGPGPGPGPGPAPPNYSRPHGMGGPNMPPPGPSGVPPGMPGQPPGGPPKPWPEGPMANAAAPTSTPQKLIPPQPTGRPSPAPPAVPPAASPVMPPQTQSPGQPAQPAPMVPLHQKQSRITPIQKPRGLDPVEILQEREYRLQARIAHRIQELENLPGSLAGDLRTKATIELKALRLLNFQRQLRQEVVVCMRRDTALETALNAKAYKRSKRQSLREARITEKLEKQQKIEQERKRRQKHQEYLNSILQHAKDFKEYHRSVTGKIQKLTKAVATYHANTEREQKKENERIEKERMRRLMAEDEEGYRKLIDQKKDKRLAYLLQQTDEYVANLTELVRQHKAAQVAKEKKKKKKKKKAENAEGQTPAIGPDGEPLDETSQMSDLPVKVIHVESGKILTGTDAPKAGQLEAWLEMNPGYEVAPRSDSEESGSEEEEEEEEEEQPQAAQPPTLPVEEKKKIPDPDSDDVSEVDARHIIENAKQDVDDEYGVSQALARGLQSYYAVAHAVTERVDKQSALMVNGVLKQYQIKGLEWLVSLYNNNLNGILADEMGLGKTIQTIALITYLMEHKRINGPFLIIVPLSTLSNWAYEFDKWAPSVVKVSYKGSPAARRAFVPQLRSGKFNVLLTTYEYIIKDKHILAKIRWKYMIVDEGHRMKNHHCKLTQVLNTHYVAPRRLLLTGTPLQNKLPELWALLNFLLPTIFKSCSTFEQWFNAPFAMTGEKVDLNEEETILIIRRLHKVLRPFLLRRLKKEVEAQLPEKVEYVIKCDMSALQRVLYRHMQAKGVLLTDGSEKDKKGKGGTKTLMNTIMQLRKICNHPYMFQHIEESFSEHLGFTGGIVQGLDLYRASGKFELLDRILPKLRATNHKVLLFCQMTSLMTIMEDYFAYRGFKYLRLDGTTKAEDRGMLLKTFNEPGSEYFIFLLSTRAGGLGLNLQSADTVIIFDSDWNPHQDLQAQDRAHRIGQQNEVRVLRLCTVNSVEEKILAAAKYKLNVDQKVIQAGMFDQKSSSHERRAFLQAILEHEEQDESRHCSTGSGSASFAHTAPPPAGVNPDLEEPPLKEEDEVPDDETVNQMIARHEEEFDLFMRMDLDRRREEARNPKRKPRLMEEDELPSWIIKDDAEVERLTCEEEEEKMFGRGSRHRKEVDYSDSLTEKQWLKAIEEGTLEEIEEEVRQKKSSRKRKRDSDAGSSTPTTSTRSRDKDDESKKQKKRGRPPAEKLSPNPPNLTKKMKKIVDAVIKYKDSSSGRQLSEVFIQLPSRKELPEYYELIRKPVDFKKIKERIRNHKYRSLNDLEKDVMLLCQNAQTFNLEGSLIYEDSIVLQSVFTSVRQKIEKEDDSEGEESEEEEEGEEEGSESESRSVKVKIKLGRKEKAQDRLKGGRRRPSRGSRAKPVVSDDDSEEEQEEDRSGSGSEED
Procedure, shortened: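 HeLa cells stably expressing HiBiT-BRG1 and LgBiT treated 24 h with 10-point 3-fold dilutions (top 30 μM, duplicate). Luminescence read after Nano-Glo HiBiT lytic reagent; % degradation relative to DMSO (high control) and 2 μM reference BRM/BRG1 degrader (low control).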

Structure (SMILES)	BRM HiBit Degradation Maximum (%) (HiBit-BRM fusion protein)	DC50 (HiBit-BRM fusion protein) [nM]	Dmax [1] [%]	DC50 [1] [nM]
Cc1ncsc1-c1ccc([C@H](C)NC(=O)[C@@H]2C[C@@H](O)CN2C(=O)[C@@H](c2cc(N3CCC(CN4CC(c5cc6nnc(-c7ccccc7O)cc6s5)C4)CC3)no2)C(C)C)cc1 [Compound 103, (2S,4R)-4-hydroxy-1-((R)-2-(3-(4-((3-(3-(2-hydroxyphenyl)thieno[3,2-c]pyridazin-6-yl)azetidin-1-yl)methyl)piperidin-1-yl)isoxazol-5-yl)-3-methylbutanoyl)-N-((S)-1-(4-(4-methylthiazol-5-yl)phenyl)ethyl)pyrrolidine-2-carboxamide]	A (“A” indicates maximum degradation ≥ 75%)	≥ 10	< 50	≥ 1000
Cc1ncsc1-c1ccc([C@H](C)NC(=O)[C@@H]2C[C@@H](O)CN2C(=O)[C@@H](c2cc(OCCCN3CC(c4cc5nnc(-c6ccccc6O)cc5s4)C3)no2)C(C)C)cc1 [Compound 104, (2S,4R)-4-hydroxy-1-((R)-2-(3-(3-(3-(3-(2-hydroxyphenyl)thieno[3,2-c]pyridazin-6-yl)azetidin-1-yl)propoxy)isoxazol-5-yl)-3-methylbutanoyl)-N-((S)-1-(4-(4-methylthiazol-5-yl)phenyl)ethyl)pyrrolidine-2-carboxamide]	B (“B” indicates maximum degradation ≥ 50%)	≥ 10	< 50	≥ 1000
Cc1ncsc1-c1ccc([C@H](C)NC(=O)[C@@H]2C[C@@H](O)CN2C(=O)[C@@H](c2cc(N3CCC(N4CC(c5cc6nnc(-c7ccccc7O)cc6s5)C4)CC3)no2)C(C)C)cc1 [Compound 105, (2S,4R)-4-hydroxy-1-((R)-2-(3-(4-(3-(3-(2-hydroxyphenyl)thieno[3,2-c]pyridazin-6-yl)azetidin-1-yl)piperidin-1-yl)isoxazol-5-yl)-3-methylbutanoyl)-N-((S)-1-(4-(4-methylthiazol-5-yl)phenyl)ethyl)pyrrolidine-2-carboxamide]	A (“A” indicates maximum degradation ≥ 75%)	< 10	< 50	≥ 1000
Cc1ncsc1-c1ccc([C@H](C)NC(=O)[C@@H]2C[C@@H](O)CN2C(=O)[C@@H](c2cc(OCC(=O)N3CC(c4cc5nnc(-c6ccccc6O)cc5s4)C3)no2)C(C)C)cc1 [Compound 106, (2S,4R)-4-hydroxy-1-((R)-2-(3-(2-(3-(3-(2-hydroxyphenyl)thieno[3,2-c]pyridazin-6-yl)azetidin-1-yl)-2-oxoethoxy)isoxazol-5-yl)-3-methylbutanoyl)-N-((S)-1-(4-(4-methylthiazol-5-yl)phenyl)ethyl)pyrrolidine-2-carboxamide]	C (“C” indicates maximum degradation < 50%)	≥ 1000	≥ 50	≥ 1000
Cc1ncsc1-c1ccc([C@H](C)NC(=O)[C@@H]2C[C@@H](O)CN2C(=O)[C@@H](c2cc(OCCN3CCC(N4CCC(c5sc6nnc(-c7ccccc7O)cc6c5C)CC4)CC3)no2)C(C)C)cc1 [Compound 107, (2S,4R)-4-hydroxy-1-((R)-2-(3-(2-(4-(3-(2-hydroxyphenyl)-5-methylthieno[2,3-c]pyridazin-6-yl)-[1,4′-bipiperidin]-1′-yl)ethoxy)isoxazol-5-yl)-3-methylbutanoyl)-N-((S)-1-(4-(4-methylthiazol-5-yl)phenyl)ethyl)pyrrolidine-2-carboxamide]	A (“A” indicates maximum degradation ≥ 75%)	≥ 10	< 50	≥ 1000
Cc1ncsc1-c1ccc([C@H](C)NC(=O)[C@@H]2C[C@@H](O)CN2C(=O)[C@@H](c2cc(N3CCC(CN4CC(c5sc6nnc(-c7ccccc7O)cc6c5C)C4)CC3)no2)C(C)C)cc1 [Compound 108, (2S,4R)-4-hydroxy-1-((R)-2-(3-(4-((3-(3-(2-hydroxyphenyl)-5-methylthieno[2,3-c]pyridazin-6-yl)azetidin-1-yl)methyl)piperidin-1-yl)isoxazol-5-yl)-3-methylbutanoyl)-N-((S)-1-(4-(4-methylthiazol-5-yl)phenyl)ethyl)pyrrolidine-2-carboxamide]	A (“A” indicates maximum degradation ≥ 75%)	≥ 10	< 50	≥ 1000
Cc1ncsc1-c1ccc([C@H](C)NC(=O)[C@@H]2C[C@@H](O)CN2C(=O)[C@@H](c2cc(OCCN3CCc4sc5nnc(-c6ccccc6O)cc5c4C3)no2)C(C)C)cc1 [Compound 109, (2S,4R)-4-hydroxy-1-((R)-2-(3-(2-(3-(2-hydroxyphenyl)-7,8-dihydropyrido[3′,4′:4,5]thieno[2,3-c]pyridazin-6(5H)-yl)ethoxy)isoxazol-5-yl)-3-methylbutanoyl)-N-((S)-1-(4-(4-methylthiazol-5-yl)phenyl)ethyl)pyrrolidine-2-carboxamide]	C (“C” indicates maximum degradation < 50%)	≥ 1000	< 50	≥ 1000
Cc1ncsc1-c1ccc([C@H](C)NC(=O)[C@@H]2C[C@@H](O)CN2C(=O)[C@@H](c2cc(OCCN3CC(Cc4c(C)sc5nnc(-c6ccccc6O)cc45)C3)no2)C(C)C)cc1 [Compound 110, (2S,4R)-4-hydroxy-1-((R)-2-(3-(2-(3-((3-(2-hydroxyphenyl)-6-methylthieno[2,3-c]pyridazin-5-yl)methyl)azetidin-1-yl)ethoxy)isoxazol-5-yl)-3-methylbutanoyl)-N-((S)-1-(4-(4-methylthiazol-5-yl)phenyl)ethyl)pyrrolidine-2-carboxamide]	B (“B” indicates maximum degradation ≥ 50%)	≥ 1000	< 50	≥ 1000
Cc1ncsc1-c1ccc([C@H](C)NC(=O)[C@@H]2C[C@@H](O)CN2C(=O)[C@@H](c2cc(OCCN3CC(Cc4csc5nnc(-c6ccccc6O)cc45)C3)no2)C(C)C)cc1 [Compound 111, (2S,4R)-4-hydroxy-1-((R)-2-(3-(2-(3-((3-(2-hydroxyphenyl)thieno[2,3-c]pyridazin-5-yl)methyl)azetidin-1-yl)ethoxy)isoxazol-5-yl)-3-methylbutanoyl)-N-((S)-1-(4-(4-methylthiazol-5-yl)phenyl)ethyl)pyrrolidine-2-carboxamide]	C (“C” indicates maximum degradation < 50%)	≥ 1000	< 50	≥ 1000
Cc1ncsc1-c1ccc([C@H](C)NC(=O)[C@@H]2C[C@@H](O)CN2C(=O)[C@@H](c2cc(N(C)CCN3CC(c4cc5nnc(-c6ccccc6O)cc5s4)C3)no2)C(C)C)cc1 [Compound 112, (2S,4R)-4-hydroxy-1-((R)-2-(3-((2-(3-(3-(2-hydroxyphenyl)thieno[3,2-c]pyridazin-6-yl)azetidin-1-yl)ethyl)(methyl)amino)isoxazol-5-yl)-3-methylbutanoyl)-N-((S)-1-(4-(4-methylthiazol-5-yl)phenyl)ethyl)pyrrolidine-2-carboxamide]	B (“B” indicates maximum degradation ≥ 50%)	≥ 100	< 50	≥ 1000
Cc1ncsc1-c1ccc([C@H](C)NC(=O)[C@@H]2C[C@@H](O)CN2C(=O)[C@@H](c2cc(N3CCC(N4CC(c5sc6nnc(-c7ccccc7O)cc6c5C)C4)CC3)no2)C(C)C)cc1 [Compound 113, (2S,4R)-4-hydroxy-1-((R)-2-(3-(4-(3-(3-(2-hydroxyphenyl)-5-methylthieno[2,3-c]pyridazin-6-yl)azetidin-1-yl)piperidin-1-yl)isoxazol-5-yl)-3-methylbutanoyl)-N-((S)-1-(4-(4-methylthiazol-5-yl)phenyl)ethyl)pyrrolidine-2-carboxamide]	A (“A” indicates maximum degradation ≥ 75%)	< 10	< 50	≥ 1000
